Experimental data reported in patent US7998736B2, “Adoptive immunotherapy with enhanced T lymphocyte survival” (The United States of America as represented by the …, priority 2004, dated 2011).

Tests used:
IL-15Rα = assay: IL-15Ralpha expression by flow cytometry; type: cell-based, human; conditions: OKT3 stimulated lymphocytes, FIG. 15
Excerpt: In vitro, supraphysiologic levels of cytokine can engage intermediate and low affinity IL-15 receptors on lymphocytes lacking IL-15Rα. […] IL-15Rα was detected with a polyclonal, biotinylated antibody and biotinylated isotype-matched control antibody; cell surface-bound antibody was then labeled with streptavidin-PE (R&D Systems). PE was detected through flow cytometry.

CTLL-2 cells = assay: CTLL-2 proliferation assay (3H-thymidine); type: cell-based, mouse; conditions: Sup-T1 supernatants or control cytokine, 24 h
Description: The CTLL-2 assay was used to determine whether IL-15 produced by transduced Sup-T1 cells was biologically active.
CTLL-2 cells were grown in culture for 4 days and then harvested and washed twice in PBS and then plated into a 96-well plate, 5×10^3 cells/well. The CTLL-2 cells were incubated in the absence of cytokines for 4 hours. Supernatants from the transduced Sup-T1 cells were then added to the culture in serial dilutions. […] The CTLL-2 cells were cultured for a total of 24 hours; during the final six hours ^3H-Thymidine was added to each well. The CTLL-2 cells were harvested to a filter and read on a β-counter.

**Q.** With “IL-15: exogenous recombinant human IL-15 added to culture media” as the substance, how does the IL-15Rα staining (IL-15Rα) read?
**A.** did not manifest IL-15Rα staining

**Q.** And the “proliferation of CTLL-2” value (CTLL-2 cells)?
**A.** did proliferate
